Laboratory results taken from patent publication US20250375417A1, “OREXIN RECEPTOR 2 (OX2R) AGONIST FOR USE IN NARCOLEPSY TYPE 1 (NT1)” (TAKEDA PHARMACEUTICAL COMPANY LIMITED, priority 2024, published 2025).

Legend:
participants with NT1 [1] = assay: Safety and tolerability (TEAEs), Phase 2 NT1 trial; type: in vivo, human
Excerpt: Standard safety endpoints (e,g., treatment […] adverse events (TEAEs), physical examination findings, vital signs, 12-lead ECG measures, clinical laboratory results) for early clinical investigation were included. Further, because cardiovascular effects have been noted in nonclinical models with Compound A and OX2R agonists in general, and these effects are thought to be on-target effects, close monitoring of cardiovascular parameters, including time-matched BP measurements before and after dosing to detect any changes and potential tolerance in BP after the administration of repeat doses to participants with NT1 were included. Ambulatory blood pressure monitoring (ABPM) was also obtained to assess BP in the outpatient setting in a rigorous manner.
In addition, because liver function test (LFT) elevation cases have been observed in another OX2R agonist with structural similarity, LFTs (ALT, AST, GGT, and total bilirubin) were closely monitored.
The following doses were studied: • Compound A Dose Regimen 1:0.5 mg twice daily approximately 3 hours apart. • Compound A Dose Regimen 2:2 mg twice daily approximately 3 hours apart. • Compound A Dose Regimen 3:2 mg followed by 5 mg approximately 3 hours apart. • Compound A Dose Regimen 4:7 mg once daily (QD). • Other products required for the study: Matching placebo.
Endpoints included change from baseline to Week 8 in mean sleep onset latency on the Maintenance of Wakefulness Test (SOL-MWT; primary endpoint), ESS total score, weekly cataplexy rate (WCR), and occurrence of treatment-emergent adverse events (TEAEs).

participants with NT1 [2] = assay: Psychomotor vigilance test (PVT), sustained attention, Phase 2 NT1 trial; type: in vivo, human
Excerpt: The psychomotor vigilance test (PVT) is validated as a clinical outcome assessment of the ability to sustain attention. The PVT is a simple reaction performance task that aims to measure sustained attention with no learning effects over repeated administration. Differences between healthy controls and patients with narcolepsy have been found on PVT performance for reaction time, accuracy, and other measures. The PVT is sensitive to the effects of total sleep loss, partial sleep restriction, naps, and circadian variation in the healthy population. The duration of test is 10 minutes.
Outcomes of this study included a performance-based test of attention, the Psychomotor Vigilance Task (PVT; administered 1 and 7 hours post first dose, assessed at baseline and weeks 4 and 8) and two assessments of EDS: the Maintenance of Wakefulness Test (MWT; administered 2, 4, 6, and 8 hours post first dose, assessed over 4 sessions) and the Epworth Sleepiness Scale (ESS; using a 7-day recall period, assessed at baseline and weeks 2, 4, and 8). At baseline, associations between attention (as measured by number of PVT lapses), and objective (MWT) and subjective (ESS) measures of EDS were computed. For PVT and MWT, covariation in change throughout the day at end of study was investigated. The effect of different Compound A doses on wakefulness and attention were compared for each outcome. […]

[3] = Compound A-treated participants

Q: Which “Adverse events of mild to moderate insomnia, participants” value (participants with NT1 [1]; [3]) does the source give for `CCS(=O)(=O)N[C@@H]1[C@H](Cc2cccc(-c3cc(F)cc(F)c3)c2F)N(C(=O)C(C)(C)O)CC1(F)F` [Compound A, N-{(2S,3R)-4,4-difluoro-1-(2-hydroxy-2-methylpropanoyl)-2-[(2,3′,5′-trifluoro[1,1′-biphenyl]-3-yl)methyl]pyrrolidin-3-yl}ethanesulfonamide] here?
A: 48%

Q: What about the “Time to resolution of most insomnia adverse events” value (participants with NT1 [1]; [3]) of the same molecule?
A: ≤ 1 week

Q: What about the “Most common TEAEs” value (participants with NT1 [1]; Phase 2) of the same molecule?
A: urinary urgency/frequency and insomnia

Q: What about the “Hepatotoxicity or visual disturbances” value (participants with NT1 [1]; Phase 2, 8 weeks) of the same molecule?
A: No cases of hepatotoxicity or visual disturbances were reported

Q: What about the Tolerability (participants with NT1 [1]; Phase 2, 8 weeks) of the same molecule?
A: generally well tolerated

Q: And the “Occurrence of TEAEs” value (participants with NT1 [1]; all Compound A doses (70/90 patients), 8 weeks)?
A: 77.8%

Q: And the “Treatment-related serious TEAEs or discontinuations due to TEAEs” value (participants with NT1 [1]; during the study)?
A: No treatment-related serious TEAEs or discontinuations due to TEAEs occurred

Q: What about the “PVT lapses, least squares mean differences from placebo” value (participants with NT1 [2]; all Compound A doses, 1 hour and 7 hours post-first dose (p<0.05)) of the same molecule?
A: significant

Q: And the “Attention (PVT lapses)” value (participants with NT1 [2]; week 8, all doses (all p<0.05))?
A: improved attention across all doses
